Drawing on PubChem BioAssay (NCI), this text covers GI50 and TGI for seven compounds.

Molecules are shown by their SMILES.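 1) Cells in 96-well plates. 2) Compound, 48 h, 5 concentrations. 3) Linear interpolation between surrounding doses. 4) Unreached endpoint = highest concentration. GI50 is the concentration that inhibits growth by half. TGI marks complete inhibition of growth.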 Some results are limits rather than exact numbers.

Among the test systems are SF-268 CNS; SK-MEL-28 melanoma; PC-3 prostate; SK-OV-3 ovarian; HOP-92 NSCLC; K-562 leukemia; NCI-H522 lung; OVCAR-3 ovarian; KM12 colon; HCC-2998 colon.
Assay in all cases: NCI tumour cell line growth inhibition, 48 h

As to `Cn1cccc1-c1cc(-c2ccc(Br)cc2)nc(N)c1C#N`, the GI50 in the assay on SF-268 CNS is more than 100 µM; with SK-MEL-28 melanoma it was more than 100 µM; in the assay with PC-3 prostate, more than 100 µM; in the assay with SK-OV-3 ovarian it was more than 100 µM; in the assay with HOP-92 NSCLC, 47.8 µM; in the assay on K-562 leukemia it was more than 100 µM. Also, the GI50 was 66 µM with NCI-H522 lung, more than 100 µM in the assay with OVCAR-3 ovarian, more than 100 µM in the assay with KM12 colon and more than 100 µM in the assay on HCC-2998 colon. Besides, the TGI in the assay with SF-268 CNS, in the assay with SK-MEL-28 melanoma, with PC-3 prostate, in the assay on SK-OV-3 ovarian, in the assay with HOP-92 NSCLC and with K-562 leukemia was more than 100 µM throughout. The TGI with NCI-H522 lung, with OVCAR-3 ovarian, in the assay on KM12 colon and with HCC-2998 colon was more than 100 µM throughout.
As to `COc1ccc(C2CC(c3cc(OC)c(OC)c(OC)c3)=NN2)cc1` (centres undefined), the GI50 is 20 µM with SF-268 CNS; 38.7 µM in the assay on SK-MEL-28 melanoma; 6.03 µM in the assay on PC-3 prostate; 12.4 µM in the assay on SK-OV-3 ovarian; 20.1 µM with HOP-92 NSCLC; 2.66 µM in the assay with K-562 leukemia. Besides, the GI50 with NCI-H522 lung was 3.43 µM; in the assay with OVCAR-3 ovarian it was 3.74 µM; with KM12 colon, 4.49 µM; in the assay with HCC-2998 colon, 9.35 µM. For the same compound, the TGI in the assay with SF-268 CNS, with SK-MEL-28 melanoma, in the assay on PC-3 prostate, in the assay with SK-OV-3 ovarian, in the assay on HOP-92 NSCLC and with K-562 leukemia was more than 100 µM each time. Besides, the TGI with NCI-H522 lung is 35.9 µM; with OVCAR-3 ovarian, 55.3 µM; in the assay on KM12 colon, more than 100 µM; with HCC-2998 colon, 37.2 µM.
Regarding `NS(=O)(=O)c1ccc(-n2nc(-c3ccc(Cl)cc3)cc2C2=CC(=O)C=CC2=O)cc1`, the GI50 is 24.6 µM with SF-268 CNS; 19.4 µM in the assay on PC-3 prostate; 28 µM in the assay with HOP-92 NSCLC; 19.4 µM with K-562 leukemia; 31 µM with NCI-H522 lung; 22.7 µM in the assay with OVCAR-3 ovarian. Moreover, the GI50 in the assay with KM12 colon was 16 µM; with HCC-2998 colon, 18.3 µM. Also, the TGI was 50.4 µM with SF-268 CNS; 56.2 µM with PC-3 prostate; more than 100 µM with HOP-92 NSCLC; 74.1 µM in the assay with K-562 leukemia; 87.2 µM in the assay on NCI-H522 lung; 42.9 µM in the assay on OVCAR-3 ovarian. In addition, the results for the TGI with KM12 colon and with HCC-2998 colon were 36.1 µM and 33 µM, respectively.
Regarding `CC1=C(C)C(=O)C(C(C)C2=C(C)C(=O)C(C)=C(C)C2=O)=C(C)C1=O`, the GI50 in the assay on SF-268 CNS is 18.7 µM; with PC-3 prostate, 20.9 µM; in the assay with SK-OV-3 ovarian it was more than 100 µM; with HOP-92 NSCLC, 13.8 µM; in the assay with K-562 leukemia, 13.2 µM; with NCI-H522 lung, 30.5 µM. Besides, the GI50 in the assay on OVCAR-3 ovarian was 21 µM; in the assay on KM12 colon it was 40 µM; with HCC-2998 colon, 57.1 µM. The TGI with SF-268 CNS was 49.7 µM; in the assay with PC-3 prostate, more than 100 µM; in the assay on SK-OV-3 ovarian it was more than 100 µM; in the assay on HOP-92 NSCLC, 39.7 µM; in the assay on K-562 leukemia, more than 100 µM; in the assay with NCI-H522 lung, more than 100 µM. Also, the results for the TGI in the assay with OVCAR-3 ovarian, with KM12 colon and in the assay on HCC-2998 colon were 54 µM, more than 100 µM and more than 100 µM, respectively.
As to `C=C1C(=O)O[C@H]2[C@H]1CC/C(Cn1cc(CCC)nn1)=C\CC[C@@]1(C)O[C@@H]21`, the GI50 is 13.7 µM in the assay with SF-268 CNS; 14.9 µM with PC-3 prostate; 26 µM in the assay on SK-OV-3 ovarian; 2.95 µM in the assay on HOP-92 NSCLC; 3.96 µM in the assay on K-562 leukemia; 3.06 µM in the assay with NCI-H522 lung. The GI50 in the assay on OVCAR-3 ovarian was 3.96 µM; with KM12 colon, 17.6 µM; with HCC-2998 colon, 15.1 µM. The TGI is 28.4 µM in the assay on SF-268 CNS; 29.4 µM in the assay on PC-3 prostate; 68.5 µM in the assay on SK-OV-3 ovarian; 7.13 µM in the assay on HOP-92 NSCLC; 29.8 µM in the assay on K-562 leukemia; 10.7 µM in the assay on NCI-H522 lung. Further, the results for the TGI in the assay with OVCAR-3 ovarian, in the assay with KM12 colon and in the assay with HCC-2998 colon were 14 µM, 34.1 µM and 32.9 µM, respectively.
As to `CCOC(=O)C(=Cc1ccccc1Br)C(=O)OCC`, the TGI in the assay with SF-268 CNS came out at 29.1 µM; with SK-MEL-28 melanoma, 5.82 µM; in the assay on PC-3 prostate, 14.9 µM; with HOP-92 NSCLC, 7.57 µM; with K-562 leukemia, 13.4 µM; in the assay with NCI-H522 lung it was 4.3 µM. Also, the TGI turned out to be 4.7 µM in the assay with OVCAR-3 ovarian, 4.06 µM in the assay with KM12 colon and 6.54 µM in the assay on HCC-2998 colon.
With `CO/N=C1/c2cc(OC)ccc2-c2c(NOC)nc3ccccc3c21`, the GI50 with SF-268 CNS was 41.6 µM; in the assay on SK-MEL-28 melanoma, 85.2 µM; in the assay on PC-3 prostate it was 21.3 µM; in the assay on HOP-92 NSCLC, 16 µM; with K-562 leukemia, 65.7 µM; in the assay on NCI-H522 lung it was 26.6 µM. The GI50 in the assay on OVCAR-3 ovarian was 49.2 µM; with KM12 colon, 37.5 µM; with HCC-2998 colon it was 35.6 µM. Further, the TGI was more than 100 µM in the assay with SF-268 CNS; more than 100 µM in the assay with SK-MEL-28 melanoma; 88.2 µM in the assay with PC-3 prostate; 46.2 µM in the assay on HOP-92 NSCLC; more than 100 µM in the assay with K-562 leukemia; more than 100 µM in the assay on NCI-H522 lung. The TGI in the assay with OVCAR-3 ovarian, with KM12 colon and with HCC-2998 colon was more than 100 µM throughout.
